Experimental data published in the supplement of paper PMC11424490.

Assays:
[1] = tested on: NCI-H2122; assay: fitted bottom plateau of viability curve, % of DMSO control; higher = less maximal inhibition; extreme values may be limits of the assay
Method in brief: (§1)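 Viability was measured by CellTiter-Glo luminescence after 72 h of compound exposure for NCI-H2122 and NCI-H358 or 144 h for SW837, and normalised to DMSO controls as percent of control. Relative IC50, averaged across replicates, and the lower plateau were taken from a four-parameter nonlinear fit.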

[2] = tested on: NCI-H358; assay: as above
Method in brief: as §1

[3] = tested on: SW837; assay: as above
Method in brief: as §1

[4] = tested on: NCI-H2122; assay: combination cScore with sotorasib (Bliss gap around IC50) (%PoC); higher = stronger additive effect
Method in brief: (§2)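 The score averages the gap between expected and measured viability under Bliss independence, taken over a field around the IC50 of each single agent or, where an IC50 was not reached, at the highest concentrations. Viability came from CellTiter-Glo luminescence, normalised to vehicle wells as percent of control and fitted with four-parameter curves. NCI-H2122, NCI-H358 and SW837 cells were dosed in concentration matrices 24 h after seeding and grown for 72 h, or 144 h for SW837.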

[5] = tested on: NCI-H358; assay: as above
Method in brief: as §2

[6] = tested on: SW837; assay: as above
Method in brief: as §2

[7] = tested on: NCI-H2122; assay: relative IC50 of cell viability (CellTiter-Glo); higher = less potent
Method in brief: as §1

[8] = tested on: SW837; assay: as above
Method in brief: as §1

relative IC50 of cell viability [7] [nM]	relative IC50 of cell viability [8] [nM]	SMILES	fitted bottom plateau of viability curve [1] [%]	fitted bottom plateau of viability curve [2] [%]	fitted bottom plateau of viability curve [3] [%]	combination cScore with sotorasib [4]	combination cScore with sotorasib [5]	combination cScore with sotorasib [6]
–	–	Cc1c(Cn2c(C)nc3c(C(=O)O)cc(N4CCOCC4)cc32)cccc1C(F)(F)F (top concentration tested 9999.9 nM)	70.8	93.8	98.7	–	–	–
–	–	O=C(C1CC1)N1CC[C@@H](Cn2c(-c3ccc(-c4ccc5occc5c4)cc3)nc3cnccc32)C1 (top concentration tested 9999.9 nM)	75.1	96.6	91.7	–	–	–
–	–	O=c1cc(-c2cccc3c2Sc2ccccc2S3)oc(N2CCOCC2)c1 (top concentration tested 9999.9 nM)	70.7	76.8	101	–	–	–
–	–	CC(C)N(CCCNC(=O)Nc1ccc(C(C)(C)C)cc1)C[C@H]1O[C@@H](n2ccc3c(N)ncnc32)[C@H](O)[C@@H]1O (top concentration tested 50000 nM)	67.3	81.5	93.4	–	–	–
–	–	CC(C)N(CCCNC(=O)Nc1ccc(C(C)(C)C)cc1)C[C@H]1O[C@@H](n2ccc3c(N)ncnc32)[C@H](O)[C@@H]1O + C=CC(=O)N1CCN(c2nc(=O)n(-c3c(C)ccnc3C(C)C)c3nc(-c4c(O)cccc4F)c(F)cc23)[C@@H](C)C1 [sotorasib]	–	–	–	8.67	2.07	1.84
–	–	CNS(=O)(=O)Nc1nccc(Cc2c(C)c3ccc(Oc4ncccn4)cc3oc2=O)c1F + C=CC(=O)N1CCN(c2nc(=O)n(-c3c(C)ccnc3C(C)C)c3nc(-c4c(O)cccc4F)c(F)cc23)[C@@H](C)C1 [sotorasib]	–	–	–	8.14	4.31	5.63
–	–	COc1ncc(-c2ccc3nccc(-c4ccnnc4)c3c2)cc1NS(=O)(=O)c1ccc(F)cc1F + C=CC(=O)N1CCN(c2nc(=O)n(-c3c(C)ccnc3C(C)C)c3nc(-c4c(O)cccc4F)c(F)cc23)[C@@H](C)C1 [sotorasib]	–	–	–	20.8	5.96	8.72
–	–	C[C@@H]1CN(CC(=O)Nc2ccc3c(c2)Cc2cccc(-c4cc(=O)cc(N5CCOCC5)o4)c2S3)C[C@H](C)O1 + C=CC(=O)N1CCN(c2nc(=O)n(-c3c(C)ccnc3C(C)C)c3nc(-c4c(O)cccc4F)c(F)cc23)[C@@H](C)C1 [sotorasib]	–	–	–	17.1	5.09	9.38
–	–	Cc1c(-c2c(-c3ccc(F)o3)sc3ncnc(O[C@H](Cc4ccccc4OCc4ccnn4CC(F)(F)F)C(=O)O)c23)ccc(OCCN2CCN(C)CC2)c1Cl + C=CC(=O)N1CCN(c2nc(=O)n(-c3c(C)ccnc3C(C)C)c3nc(-c4c(O)cccc4F)c(F)cc23)[C@@H](C)C1 [sotorasib]	–	–	–	10.4	4.06	2.8
–	–	Cc1c(Cn2c(C)nc3c(C(=O)O)cc(N4CCOCC4)cc32)cccc1C(F)(F)F + C=CC(=O)N1CCN(c2nc(=O)n(-c3c(C)ccnc3C(C)C)c3nc(-c4c(O)cccc4F)c(F)cc23)[C@@H](C)C1 [sotorasib]	–	–	–	5.26	-2.39	9.96
–	–	Cc1cc(C)c(CNC(=O)c2cc(-c3ccc(N4CCNCC4)nc3)cc3c2c(C)cn3C2CCCC2)c(=O)[nH]1 + C=CC(=O)N1CCN(c2nc(=O)n(-c3c(C)ccnc3C(C)C)c3nc(-c4c(O)cccc4F)c(F)cc23)[C@@H](C)C1 [sotorasib]	–	–	–	10.7	2.26	1.67
–	–	Cc1nc(Nc2n[nH]c3c2CN(C(=O)N[C@H](CN(C)C)c2ccccc2)C3(C)C)c2sccc2n1 + C=CC(=O)N1CCN(c2nc(=O)n(-c3c(C)ccnc3C(C)C)c3nc(-c4c(O)cccc4F)c(F)cc23)[C@@H](C)C1 [sotorasib]	–	–	–	17.5	-0.36	4.19
–	–	O=C(C1CC1)N1CC[C@@H](Cn2c(-c3ccc(-c4ccc5occc5c4)cc3)nc3cnccc32)C1 + C=CC(=O)N1CCN(c2nc(=O)n(-c3c(C)ccnc3C(C)C)c3nc(-c4c(O)cccc4F)c(F)cc23)[C@@H](C)C1 [sotorasib]	–	–	–	14.4	1	13.8
–	–	O=c1cc(-c2cccc3c2Sc2ccccc2S3)oc(N2CCOCC2)c1 + C=CC(=O)N1CCN(c2nc(=O)n(-c3c(C)ccnc3C(C)C)c3nc(-c4c(O)cccc4F)c(F)cc23)[C@@H](C)C1 [sotorasib]	–	–	–	11.2	12.9	10.6
–	–	COc1cc2nc(C)nc(N[C@H](C)c3cc(N)cc(C(F)(F)F)c3)c2cc1O[C@H]1CCOC1 [BI-3406 (SOSi)] (top concentration tested 1000.1 nM)	69.4	82	102	–	–	–
–	–	CC[C@H](Nc1ncnc2[nH]cnc12)c1nc2cccc(F)c2c(=O)n1-c1ccccc1 [Cal-101] (top concentration tested 10000 nM)	75.5	84.2	85.3	–	–	–
–	–	O=P1(N(CCCl)CCCl)NCCCO1 (stereo not given) [Cyclophosphamide] (top concentration tested 10000 nM)	88.9	99.7	87.3	–	–	–
–	–	C[C@H](Nc1ncnc2nc[nH]c12)c1cc2cccc(Cl)c2c(=O)n1-c1ccccc1 [Duvelisib] (top concentration tested 9999.9 nM)	56.5	61	94.1	–	–	–
–	–	CCCc1cc(C)[nH]c(=O)c1CNC(=O)c1cc(-c2ccnc(N3CCN(C)CC3)c2)cc2c1cnn2C(C)C [GSK343] (top concentration tested 4999.9 nM)	83.2	92.7	94.5	–	–	–
–	–	C[C@H](NC(=O)c1c(N)nn2cccnc12)c1cc2cccc(C#Cc3cnn(C)c3)c2c(=O)n1-c1ccccc1 [IPI-549] (top concentration tested 1000 nM)	86.2	91	91.6	–	–	–
–	–	CS(=O)(=O)CCNCc1ccc(-c2ccc3ncnc(Nc4ccc(OCc5cccc(F)c5)c(Cl)c4)c3c2)o1 [Lapatinib] (top concentration tested 1000 nM)	77.5	58.4	92.9	–	–	–
–	–	O=C(c1cc(Cc2n[nH]c(=O)c3ccccc23)ccc1F)N1CCN(C(=O)C2CC2)CC1 [Olaparib] (top concentration tested 50000 nM)	63.9	56.6	88.2	–	–	–
–	–	O=C(/C=C/N1C[C@H]2C[C@@H]1CN2c1ccccn1)c1ccccc1O [PFI-3] (top concentration tested 50000 nM)	94	93.4	98.3	–	–	–
–	–	O=C(c1c(F)ccc(NS(=O)(=O)N2CC[C@@H](F)C2)c1F)c1c[nH]c2ncc(-c3cnc(C4CC4)nc3)cc12 [PLX8394] (top concentration tested 5000 nM)	78.7	57.8	96.3	–	–	–
–	–	CC1(N)CCN(c2cnc(-c3cccc(Cl)c3Cl)c(N)n2)CC1 [SHP099] (top concentration tested 1000.1 nM)	84.1	88.2	97	–	–	–
–	–	CC/C(=C(\c1ccccc1)c1ccc(OCCN(C)C)cc1)c1ccccc1 [Tamoxifen] (top concentration tested 10000 nM)	66	67.9	88.6	–	–	–
778	2310	CN[C@H]1CN(c2ccc3c(=O)c(C(=O)O)cn(-c4nccs4)c3n2)C[C@@H]1OC [Vosaroxin] (top concentration tested 2500 nM)	34.3	–	0	–	–	–
–	–	Oc1nc(-c2ccc(C(F)(F)F)cc2)nc2c1CSCC2 [XAV939] (top concentration tested 50000 nM)	81.5	88.7	89.3	–	–	–
